What all share (assay type): cell-based, Homo sapiens
Experiment [1] concerns the target Gamma-secretase. The experiment is described as follows: Inhibition of gamma-secretase (unknown origin) expressed in HEK293 cells co-expressing […] mutant assessed as reduction of amyloid beta-40 production.
For experiment [2], the target named is Gamma-secretase. The experiment can be described thus: Inhibition of gamma-secretase (unknown origin) expressed in HEK293 cell membrane co-expressing […] mutant assessed as reduction of amyloid beta-40 production.
The target in experiment [3] is Gamma-secretase. The experiment is described as follows: Inhibition of gamma-secretase (unknown origin) expressed in HEK293 cells co-expressing […] mutant assessed as reduction of amyloid beta-42 production.

As usually defined, the IC50 is the concentration that gives 50% inhibition. Regarding `O=S(=O)(NC[C@@H]1CCC[C@@]2(S(=O)(=O)c3ccc(C(F)(F)F)cc3)c3c(F)ccc(F)c3OC[C@@H]12)C(F)(F)F`, the IC50 at Gamma-secretase [1] came out at 73 nM; on Gamma-secretase [2], 54 nM; on Gamma-secretase [3], 32 nM.
For `CC[C@@H]1C[C@@H]2[C@@H](CC[C@@]3(S(=O)(=O)c4ccc(C(F)(F)F)cc4)c4c(F)ccc(F)c4OC[C@@H]23)NS1(=O)=O`, in that order: 5 nM, 1.9 nM and 2 nM.
As to `CS(=O)(=O)CC[C@@H]1OCC[C@@]2(S(=O)(=O)c3ccc(Cl)cc3)c3c(F)ccc(F)c3OC[C@@H]12`, the IC50 on Gamma-secretase [1] stood at 4 nM; on Gamma-secretase [2] it was 1.3 nM; on Gamma-secretase [3], 1 nM.
For `CS(=O)(=O)CC[C@@H]1OCC[C@@]2(S(=O)(=O)c3ccc(C#N)cc3)c3c(F)ccc(F)c3OC[C@@H]12`, the results for the IC50 at Gamma-secretase [1], at Gamma-secretase [2] and at Gamma-secretase [3] were 25 nM, 66 nM and 9 nM, respectively.
In the case of `CS(=O)(=O)CC[C@@H]1OCC[C@@]2(S(=O)(=O)c3ccc(C(F)(F)F)cc3)c3c(F)ccc(F)c3OC[C@@H]12`, the IC50 at Gamma-secretase [1] was 11 nM; at Gamma-secretase [2] it was 15 nM; at Gamma-secretase [3] it was 4 nM.
Regarding `CC[C@@H]1C[C@@H]2[C@@H](CC[C@@]3(S(=O)(=O)c4ccc(C#N)cc4)C4=C(OC[C@@H]23)C(F)(F)C=CC4=O)NS1(=O)=O`, the values for the IC50 at Gamma-secretase [1], on Gamma-secretase [2] and on Gamma-secretase [3] were 110 nM, 3.5 nM and 31 nM, respectively.
On to `CC[C@@H]1C[C@@H]2[C@@H](CC[C@@]3(S(=O)(=O)c4ccc(C#N)cc4)c4c(F)ccc(F)c4OC[C@@H]23)NS1(=O)=O`, for which the IC50 at Gamma-secretase [1] came out at 4 nM; at Gamma-secretase [2], 4.7 nM; at Gamma-secretase [3], 2 nM.
For `CC[C@@H]1C[C@@H]2[C@@H](CC[C@@]3(S(=O)(=O)c4ccc(C(F)(F)F)cc4)C4=C(OC[C@@H]23)C(F)(F)C=CC4=O)NS1(=O)=O`, in that order: 46 nM, 3.9 nM and 25 nM.
For `O=C1C=CC(F)(F)C2=C1[C@]1(S(=O)(=O)c3ccc(C(F)(F)F)cc3)CC[C@@H](NS(=O)(=O)C3CC3)C[C@@H]1CO2`, in that order: 280 nM, 6.8 nM and 110 nM.
For `O=S(=O)(NC[C@@H]1CC[C@@]2(S(=O)(=O)c3ccc(C(F)(F)F)cc3)c3c(F)ccc(F)c3OC[C@H]2C1)C1CC1`, in that order: 6.8 nM, 92 nM and 19 nM.
For `O=C1C=CC(F)(F)C2=C1[C@]1(S(=O)(=O)c3ccc(C(F)(F)F)cc3)CCC[C@@H](CNS(=O)(=O)C(F)(F)F)[C@@H]1CO2`, the IC50 on Gamma-secretase [1] was found to be 330 nM; on Gamma-secretase [2], 78 nM; on Gamma-secretase [3], 200 nM.
For `CS(=O)(=O)CC[C@@H]1CCC[C@@]2(S(=O)(=O)c3ccc(C(F)(F)F)cc3)C3=C(OC[C@@H]12)C(F)(F)C=CC3=O`, in that order: 130 nM, 1.9 nM and 49 nM.
The matching figures for `CS(=O)(=O)CC[C@@H]1CCC[C@@]2(S(=O)(=O)c3ccc(C(F)(F)F)cc3)c3c(F)ccc(F)c3OC[C@@H]12`: 63 nM, 43 nM and 21 nM.
For `CS(=O)(=O)CC[C@@H]1OCC[C@@]2(S(=O)(=O)c3ccc(C#N)cc3)C3=C(OC[C@@H]12)C(F)(F)C=CC3=O`, in that order: 1600 nM, 21 nM and 410 nM.
As for `CS(=O)(=O)CC[C@@H]1OCC[C@@]2(S(=O)(=O)c3ccc(C(F)(F)F)cc3)C3=C(OC[C@@H]12)C(F)(F)C=CC3=O`, the 50% inhibitory concentration (IC50) is 56 nM on Gamma-secretase [1], 1.8 nM on Gamma-secretase [2] and 27 nM on Gamma-secretase [3].
The matching figures for `CS(=O)(=O)CC[C@@H]1OCC[C@@]2(S(=O)(=O)c3ccc(Cl)cc3)C3=C(OC[C@@H]12)C(F)(F)C=CC3=O`: 26 nM, 1.2 nM and 11 nM.

Source of the values: ChEMBL document CHEMBL2311320, “A-ring modification of SCH 900229 and related chromene sulfone γ-secretase inhibitors” (Bioorg Med Chem Lett, 2013).
